The source of these data is ChEMBL document CHEMBL5634193, “Discovery of CVN293, a Brain Permeable KCNK13 (THIK-1) Inhibitor Suitable for Clinical Assessment” (ACS Med Chem Lett, 2024).

Converted amounts (≈) assume the structure as drawn.

For data set [1], the target named is T1, Potassium channel subfamily K member 13 (Homo sapiens, UniProt Q9HB14).
T1 sequence (Q9HB14 whole entry): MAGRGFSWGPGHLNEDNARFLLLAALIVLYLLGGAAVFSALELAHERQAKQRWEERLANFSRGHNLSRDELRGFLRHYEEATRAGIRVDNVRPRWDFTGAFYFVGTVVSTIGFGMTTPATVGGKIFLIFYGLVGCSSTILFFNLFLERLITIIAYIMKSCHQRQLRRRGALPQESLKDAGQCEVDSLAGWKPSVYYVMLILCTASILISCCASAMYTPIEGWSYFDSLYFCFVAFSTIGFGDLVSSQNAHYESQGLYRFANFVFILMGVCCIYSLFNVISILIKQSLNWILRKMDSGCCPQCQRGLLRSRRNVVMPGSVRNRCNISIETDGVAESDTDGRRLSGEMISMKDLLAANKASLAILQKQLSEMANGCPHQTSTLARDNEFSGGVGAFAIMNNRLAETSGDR
Put plainly: Inhibition of human KCNK13 transfected in HEK293 cells. Format: cell-based.

Data set [2] in a line: Kinetic aqueous solubility of compound at pH 7.4. The conditions noted are these: buffer, read-out: Kinetic_solubility. It is filed as physicochemical.
Data set [3] in a line: Metabolic stability in rat liver microsomes assessed as intrinsic clearance. It is filed as ADME, Microsome. Particulars: read-out: CLH. A general note: Microsomes from liver hold many membrane-bound enzymes, among them those of drug oxidation.
Data set [4] can be described thus: Metabolic stability in human liver microsomes assessed as intrinsic clearance. The conditions noted are these: read-out: CLH. It is filed as ADME, Microsome.
The nature of data set [5]: Metabolic stability in mouse liver microsomes assessed as intrinsic clearance. It is filed as ADME, Microsome. Particulars: read-out: CLH.
Data set [6] has as its target T2, Potassium channel subfamily K member 13 (Mus musculus, UniProt Q8R1P5).
T2 sequence (Q8R1P5 whole entry): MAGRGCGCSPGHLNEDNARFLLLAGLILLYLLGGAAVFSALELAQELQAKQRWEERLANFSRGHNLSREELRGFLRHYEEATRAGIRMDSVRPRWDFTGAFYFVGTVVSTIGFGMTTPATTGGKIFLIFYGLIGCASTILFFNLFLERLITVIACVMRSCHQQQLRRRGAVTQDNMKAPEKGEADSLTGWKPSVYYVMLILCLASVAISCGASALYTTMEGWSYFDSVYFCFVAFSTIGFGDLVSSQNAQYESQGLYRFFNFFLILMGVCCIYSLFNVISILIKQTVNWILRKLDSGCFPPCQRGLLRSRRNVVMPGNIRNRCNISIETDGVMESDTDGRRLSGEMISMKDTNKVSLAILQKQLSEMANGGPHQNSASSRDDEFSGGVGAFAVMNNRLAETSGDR
Put plainly: Inhibition of mouse KCNK13 transfected in HEK293 cells. It is filed as cell-based.

A short description of data set [7]: Protein binding in mouse brain assessed as unbound fraction by equilibrium dialysis. It is filed as ADME, tissue-based.
Data set [8] is described as follows: Protein binding in mouse plasma assessed as unbound fraction by equilibrium dialysis. Format: ADME, cell-free. For orientation: In equilibrium dialysis free small molecules cross a membrane that holds back macromolecules.
A short description of data set [9]: Ratio of drug concentration in brain to plasma C57BL/6 mouse at 10 mg/kg, po measured after 4 hrs by LC-MS/MS analysis. It is filed as ADME, organism-based. The conditions noted are these: brain and plasma, read-out: BPR.
Data set [10] can be described thus: Unbound drug concentration in C57BL/6 mouse brain at 10 mg/kg, po measured after 4 hrs by LC-MS/MS analysis. The conditions noted are these: in vivo. Format: ADME, organism-based.
A short description of data set [11]: Unbound drug concentration in C57BL/6 mouse plasma at 10 mg/kg, po measured after 4 hrs by LC-MS/MS analysis. The conditions noted are these: in vivo. Format: ADME, organism-based.
Data set [12] in a line: Ratio of unbound drug concentration in brain to plasma C57BL/6 mouse at 10 mg/kg, po measured after 4 hrs by LC-MS/MS analysis. Format: ADME, organism-based. The conditions noted are these: brain and plasma, read-out: K(p,uu,brain).

With `c1ccc2c(c1)nc(-c1cocn1)n2Cc1ccncc1`, in data set [1], 2940 nM corresponded to half-maximal inhibition (IC50).
On to `Nc1nonc1-c1nc2c(F)cccc2n1Cc1ccncc1`, for which the solubility kinetic in data set [2] was below 0.3 µM. In addition, the microsomal CLint in data set [3] is 27 µL/min/mg; in data set [4] it was 25 µL/min/mg; in [5], 74 µL/min/mg. Also, the IC50 (in general, the concentration needed to halve the response being measured) in data set [1] is 55 nM.
The like results for `Nc1nonc1-c1nc2cccc(F)c2n1Cc1ccncc1` were, in that order, 3.7 µM (≈ 1.15 µg/mL), 22 µL/min/mg, 14 µL/min/mg, 66 µL/min/mg and 46 nM.
As for `Nc1ncccc1-c1nc2ccccc2n1Cc1ccncc1`, the IC50 in data set [1] was above 22000 nM.
For `Nc1nonc1-c1nc2cccc(F)c2n1Cc1ccc(C(F)(F)F)nn1`, the figures for the IC50 in [6] and in data set [1] were 74 nM and 84 nM, respectively. Moreover, the solubility kinetic in [2] amounted to 1.6 µM (≈ 0.607 µg/mL). Further, the microsomal CLint in data set [4] stood at 18.3 µL/min/mg; in data set [5], 245 µL/min/mg. Moreover, the figures for the fraction unbound in data set [7] and in data set [8] were 0.024 and 0.035, respectively.
On to `Nc1nonc1-c1nc2ccc(F)c(F)c2n1Cc1cccnn1`, for which, in data set [2], the solubility kinetic was 3.9 µM (≈ 1.28 µg/mL). Also, the microsomal CLint in data set [3] was 15.4 µL/min/mg; in [4] it was below 9.6 µL/min/mg; in [5], below 9.6 µL/min/mg. Further, in data set [9], the Kp at 4 h is 1.17. Also, the “Cp(f)” value is 56 nM in [10] and 80 nM in data set [11]. Further, the fraction unbound (in general, free concentration divided by total concentration) in [7] came to 0.097; in data set [8], 0.161. In data set [12], the Kp uu at 4 h was determined as 0.7. 50 nM corresponded to half-maximal inhibition in [1] (IC50).
On to `CC(=O)Nc1nonc1-c1nc2ccccc2n1Cc1ccncc1`, for which the microsomal CLint in data set [3] worked out at 45 µL/min/mg; in data set [4], 34 µL/min/mg. In [1], this compound gave an IC50 above 22000 nM.
Regarding `Nc1nonc1-c1nc2cccc(F)c2n1Cc1ccnnc1`, the solubility kinetic in data set [2] came out at 10.4 µM (≈ 3.24 µg/mL). Also, the microsomal CLint in [3] came to 31.6 µL/min/mg; in [4], 9.6 µL/min/mg; in [5], 13.9 µL/min/mg. For the same compound, in [9], the Kp at 4 h stood at 0.68. Besides, the “Cp(f)” value came out at 18 nM in data set [10] and 9 nM in [11]. In addition, the values for the fraction unbound in data set [7] and in data set [8] were 0.128 and 0.188, respectively. Also, the Kp uu at 4 h in data set [12] is 1.9. In addition, the IC50 in data set [1] is 50 nM.
In the case of `N#Cc1ccc(Cn2c(-c3nonc3N)nc3cccc(F)c32)nn1`, the figures for the IC50 in data set [6] and in data set [1] were 35 nM and 50 nM, respectively. For the same compound, the solubility kinetic in [2] was determined as 8.4 µM (≈ 2.82 µg/mL). The microsomal CLint in data set [3] came to 40 µL/min/mg; in [4], 9.6 µL/min/mg; in [5] it was 37 µL/min/mg. In addition, the results for the fraction unbound in data set [7] and in data set [8] were 0.064 and 0.071, respectively.
For the compound `Nc1nonc1-c1nc2cccc(F)c2n1Cc1cncnc1`, the IC50 in data set [6] stood at 26 nM; in data set [1], 49 nM. The solubility kinetic in data set [2] was found to be 6.5 µM (≈ 2.02 µg/mL). The microsomal CLint is 24 µL/min/mg in [3], 10 µL/min/mg in [4] and 18 µL/min/mg in data set [5]. For the same compound, the fraction unbound in data set [7] turned out to be 0.057; in data set [8], 0.129.
As to `Nc1nonc1-c1nc2cccc(F)c2n1Cc1ccncn1`, the solubility kinetic in data set [2] was 9.9 µM (≈ 3.08 µg/mL). Further, the microsomal CLint in [3] turned out to be 77 µL/min/mg; in [4] it was 10 µL/min/mg; in data set [5], 30 µL/min/mg. The fraction unbound in data set [7] stood at 0.091; in data set [8], 0.111. The IC50 in [1] stood at 46 nM.
`Nc1nonc1-c1nc2c(F)ccc(F)c2n1Cc1cccnn1`: the IC50 in [6] was 42 nM; in [1], 37 nM. Further, the solubility kinetic in data set [2] is 12.9 µM (≈ 4.25 µg/mL). The microsomal CLint was determined as 12.6 µL/min/mg in data set [3], 9.6 µL/min/mg in [4] and 10.1 µL/min/mg in data set [5]. Further, the Kp at 4 h in data set [9] came to 0.96. Moreover, the results for the “Cp(f)” value in data set [10] and in data set [11] were 630 nM and 793 nM, respectively. Moreover, the fraction unbound in [7] worked out at 0.13; in data set [8] it was 0.159. For the same compound, the Kp uu at 4 h in data set [12] is 0.8.
`c1ccc2c(c1)nc(-c1ccn[nH]1)n2Cc1ccncc1` gave an IC50 in data set [1] of 9200 nM.
Take `c1ccc2c(c1)nc(-c1ncc[nH]1)n2Cc1ccncc1`: in data set [1], 3430 nM corresponded to half-maximal inhibition (IC50). Compared with the last compound, the IC50 is about 2.7-fold lower.
As for `Nc1nonc1-c1nc2ccc(F)cc2n1Cc1ccncc1`, in [2], the solubility kinetic is below 0.3 µM. In addition, the microsomal CLint in data set [3] amounted to 10 µL/min/mg; in data set [4], 37 µL/min/mg; in data set [5], 58 µL/min/mg. In data set [1], the IC50 amounted to 34 nM.
`Nc1nonc1-c1nc2cc(F)ccc2n1Cc1ccncc1`: the solubility kinetic in data set [2] is below 0.3 µM. The values for the microsomal CLint in [3], in data set [4] and in data set [5] were 14 µL/min/mg, 19 µL/min/mg and 28 µL/min/mg, respectively. The IC50 in data set [1] came out at 42 nM.
With `Nc1nonc1-c1nc2cccc(F)c2n1Cc1cnccn1`, the IC50 in data set [6] was found to be 62 nM; in data set [1], 47 nM. Further, the solubility kinetic in data set [2] was determined as 10 µM (≈ 3.11 µg/mL). Further, the microsomal CLint in [3] was found to be 68 µL/min/mg; in [4] it was 21 µL/min/mg; in data set [5] it was 50 µL/min/mg. In [9], the Kp at 4 h was determined as 0.56. The “Cp(f)” value in [10] came out at 18 nM; in data set [11] it was 9 nM. Besides, the fraction unbound in [7] turned out to be 0.077; in data set [8] it was 0.138. The Kp uu at 4 h in data set [12] worked out at 2.2.
As to `Nc1nonc1-c1nc2ccccc2n1Cc1ccncc1`, the microsomal CLint in [3] was found to be 56 µL/min/mg; in data set [4], 24 µL/min/mg.
On to `Cc1nonc1-c1nc2ccccc2n1Cc1ccncc1`, for which the microsomal CLint in data set [3] was 47 µL/min/mg; in data set [4], 45 µL/min/mg. In [1], this compound yielded an IC50 of 89 nM.
